# Laboratory results from patent US20030073850A1, “4-Imidazole derivatives of benzyl and restricted benzyl sulfonamides, sulfamides, ureas, carbamates, and amides and their use” (priority 1998, published 2003).
# Read-outs that look alike come from different tables or passages of the source.
# How the values were obtained:
# α1A (rabbit urethra) = biological target: T1, α1A (rabbit urethra) (Oryctolagus cuniculus, UniProt O02824); assay: Agonist tissue response, contraction of rabbit urethra; type: biochemical; details: values without asterisk, read-out: Agonist Tissue Response (pD2) α1A (rab ureth) (converted)
# T1 construct: tested for α1A functional activity using rabbit urethra; from tissue; host or cells: rabbit urethra (female New Zealand white rabbits)
# T1 sequence (O02824 1-466): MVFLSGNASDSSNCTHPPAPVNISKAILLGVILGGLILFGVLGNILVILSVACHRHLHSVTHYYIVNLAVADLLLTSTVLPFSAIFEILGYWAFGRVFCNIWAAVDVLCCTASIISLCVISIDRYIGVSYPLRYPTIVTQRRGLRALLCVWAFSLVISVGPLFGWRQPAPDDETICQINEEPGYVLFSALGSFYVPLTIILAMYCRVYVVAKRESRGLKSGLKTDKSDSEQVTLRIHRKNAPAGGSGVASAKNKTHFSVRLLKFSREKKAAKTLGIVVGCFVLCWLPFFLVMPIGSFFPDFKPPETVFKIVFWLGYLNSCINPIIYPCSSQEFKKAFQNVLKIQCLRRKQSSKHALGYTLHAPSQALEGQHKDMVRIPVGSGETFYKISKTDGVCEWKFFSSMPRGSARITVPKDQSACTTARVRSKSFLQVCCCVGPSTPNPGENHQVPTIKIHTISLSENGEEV
# Method: Most of the compounds were tested for α1A functional activity using rabbit urethra as follows. Female New Zealand white rabbits (2.0-3.5 Kg) were sedated with CO2 and decapitated. […] Subsequent experimental conditions were as described above for the other tissues. Agonist concentration response curves were cumulative except for the vas deferens assay in which the transient response made such measurements impractical.
# [1] = biological target: T2, α1b (hamster receptor expressed in mouse fibroblasts) (Mesocricetus auratus, UniProt P18841); assay: Radioligand binding, [3H]-prazosin, α1b
# T2 construct: expressed in transfected cells; host or cells: mouse fibroblasts
# T2 sequence (P18841 1-515): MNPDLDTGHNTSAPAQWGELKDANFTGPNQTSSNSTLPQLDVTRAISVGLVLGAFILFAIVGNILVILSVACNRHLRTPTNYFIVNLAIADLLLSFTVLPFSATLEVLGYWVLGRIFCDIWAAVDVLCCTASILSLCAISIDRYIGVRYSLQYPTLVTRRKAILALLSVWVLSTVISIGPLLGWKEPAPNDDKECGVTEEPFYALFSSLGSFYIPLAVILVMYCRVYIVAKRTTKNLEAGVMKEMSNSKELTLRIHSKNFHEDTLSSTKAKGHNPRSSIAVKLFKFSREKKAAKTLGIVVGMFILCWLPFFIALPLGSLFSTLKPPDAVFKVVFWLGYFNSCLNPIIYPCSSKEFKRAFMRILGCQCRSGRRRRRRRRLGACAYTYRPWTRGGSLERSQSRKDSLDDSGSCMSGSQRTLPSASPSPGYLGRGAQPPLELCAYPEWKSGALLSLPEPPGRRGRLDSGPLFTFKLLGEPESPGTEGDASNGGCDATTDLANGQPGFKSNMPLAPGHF
# Outline: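 [3H]-prazosin radioligand displacement; α1A from rat submaxillary gland tissue, α1b hamster and α1d rat receptors each expressed in mouse fibroblasts.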
# [2] = biological target: T3, α1d (rat receptor expressed in mouse fibroblasts) (Rattus norvegicus, UniProt P23944); assay: Radioligand binding, [3H]-prazosin, α1d
# T3 construct: expressed in transfected cells; host or cells: mouse fibroblasts
# T3 sequence (P23944 1-561): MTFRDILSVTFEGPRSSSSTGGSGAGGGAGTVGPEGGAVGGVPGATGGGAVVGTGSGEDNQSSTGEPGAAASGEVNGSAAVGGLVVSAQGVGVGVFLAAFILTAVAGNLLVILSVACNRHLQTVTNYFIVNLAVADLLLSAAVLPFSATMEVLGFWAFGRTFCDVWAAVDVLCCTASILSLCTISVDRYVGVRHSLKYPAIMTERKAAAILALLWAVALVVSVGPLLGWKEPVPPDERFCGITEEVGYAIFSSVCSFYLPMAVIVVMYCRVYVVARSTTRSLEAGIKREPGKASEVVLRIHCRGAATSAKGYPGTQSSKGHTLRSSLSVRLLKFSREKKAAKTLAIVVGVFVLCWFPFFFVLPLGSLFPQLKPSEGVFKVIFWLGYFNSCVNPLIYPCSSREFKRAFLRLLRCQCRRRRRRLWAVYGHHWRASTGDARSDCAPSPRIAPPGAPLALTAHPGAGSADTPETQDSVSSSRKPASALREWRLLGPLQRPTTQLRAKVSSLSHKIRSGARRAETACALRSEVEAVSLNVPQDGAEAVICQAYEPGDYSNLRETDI
# Method: (§1) For purposes of discussing a, adrenoceptor subtypes, the IUPHAR convention of using lower case letters to define molecular clones and upper case letters to indicate pharmacologically defined adrenoceptors has been followed. Compounds of formula I were evaluated in radioligand binding assays specific for α1A (rat submaxillary gland), α1b (hamster receptor expressed in mouse fibroblasts) and α1d (rat receptor expressed in mouse fibroblasts) using [^3H]-prazosin as the radioligand as described in Knepper, et al. J. Pharm.
# [3] = biological target: T4, α1A (rat submaxillary gland) (Rattus norvegicus, UniProt P43140); assay: Radioligand binding, [3H]-prazosin, α1A
# T4 construct: α1A (rat submaxillary gland); from tissue; host or cells: rat submaxillary gland
# T4 sequence (P43140 1-466): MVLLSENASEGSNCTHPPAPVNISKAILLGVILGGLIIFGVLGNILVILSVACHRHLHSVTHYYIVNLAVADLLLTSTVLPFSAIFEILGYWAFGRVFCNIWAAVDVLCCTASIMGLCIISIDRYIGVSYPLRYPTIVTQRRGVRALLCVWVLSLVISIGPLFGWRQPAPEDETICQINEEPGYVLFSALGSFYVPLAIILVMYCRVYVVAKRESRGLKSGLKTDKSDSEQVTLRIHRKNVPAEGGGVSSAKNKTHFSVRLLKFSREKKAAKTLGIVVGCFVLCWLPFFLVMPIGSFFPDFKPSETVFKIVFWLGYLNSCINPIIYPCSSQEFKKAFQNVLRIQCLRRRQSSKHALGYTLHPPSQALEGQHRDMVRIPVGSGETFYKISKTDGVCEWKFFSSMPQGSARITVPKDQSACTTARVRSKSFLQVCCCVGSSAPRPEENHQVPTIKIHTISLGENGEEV
# Method: as §1
# anesthetized dogs [4] = assay: Mean arterial pressure (MAP) in anesthetized dogs; type: in vivo, dog; details: iv dose causing a maximum increase in MAP of 20 mm Hg, anesthetized female Beagle dogs
# Text: (§2) Female Beagle dogs (Marshall Farms, North Rose, N.Y.) greater that 2 years of age and weighing between 12 and 15 kg were used in these studies. At least 2 weeks prior to any agonist dosing, dogs were instrumented for the chronic measurement of arterial blood pressure by implanting a telemetry transducer/transmitter (TA11PA-C40, Data Sciences International, St. Paul, Minn.) into a carotid artery.
# (§3) On the test day, dogs fasted since the previous afternoon were pre-anesthetized with thiopental sodium 15 mg/kg i.v. (Pentothal™, Abbott) and intubated. Anesthesia was maintained by allowing the dog to spontaneously breathe a mixture of isoflurane (2.5 to 3 volume %) and oxygen delivered by a Narkomed Standard anesthesia system (North American Drager, Telford, Pa.). An Abbocath-T™ i.v. catheter (18-G, Abbott) was inserted into the cephalic vein for the administration of agonists. A telemetry receiver (RA1310, DataSciences) was placed under the head of each dog and was interfaced to a computerized data acquisition system (Modular Instruments Inc.(MI2), Malvern, Pa.) which allowed for the continuous calibrated recording of arterial blood pressure which was electronically filtered to determine its mean value (MAP).
# (§4) From the resulting dose response curve, an ED5 value, for the dose causing a maximum increase in IUP of 5 mm Hg, could be estimated. An ED20 value for the dose causing a maximum increase in MAP of 20 mm Hg could also be estimated. A selectivity ratio of MAP ED20 vs. IUP ED, was calculated.
# anesthetized dogs [5] = assay: Intraurethral pressure (IUP) in anesthetized dogs; type: in vivo, dog; details: for ED (5 mm Hg): Canis lupus familiaris, iv dose causing a maximum increase in IUP of 5 mm Hg, anesthetized female Beagle dogs, read-out: Mean IUP ED5; for Mean Selectivity Ratio MAP ED20/IUP ED5: anesthetized dogs, iv
# Text: as §2, §3
# Dogs with chronic telemetry implants anesthetized as described above were placed in dorsal recumbency and a balloon catheter was inserted into the urethral orifice and advanced approximately 15 cm until the tip was well inside the bladder. The balloon was then inflated with 1 ml of room air and the catheter slowly withdrawn until resistance (corresponding to the bladder neck) was evident. The balloon was then deflated and the catheter withdrawn additional 2 cm. The balloon was then reinflated and its catheter port connected to a Gould Statham P23Dd pressure transducer interfaced to a computerized data acquisition system (Modular Instruments, Inc., Malvern, Pa.) for the measurement of the intraurethral pressure. Increasing iv doses of test agonists were administered and the maximum effect of each dose on IUP was recorded. The effect of each dose was allowed to return to baseline before the next dose was given.
# as §4
# [6] = hamster receptor expressed in mouse fibroblasts, [3H]-prazosin, read-out: Radioligand Binding Ki α1b (Hamster)
# [7] = rat receptor expressed in mouse fibroblasts, [3H]-prazosin, read-out: Radioligand Binding Ki α1d (Rat)
EC50 (α1A (rabbit urethra)) [µM],"Ki [1, 6] [µM]","Ki [2, 7] [µM]",Ki [3] [µM],Mean MAP ED20 (anesthetized dogs [4]) [nmol/kg],SMILES,melting point [°C],ED (5 mm Hg) (anesthetized dogs [5]) [µmol/kg],Mean Selectivity Ratio MAP ED20/IUP ED5 (anesthetized dogs [5]),Ki [1] [µM],Ki [2] [µM]
7.94,10,10,1.24,,"CCCN(CCC)C(=O)Nc1cccc2c1CCCC2c1c[nH]cn1 (stereo not drawn) [Example 112, N′-[5-(1H-imidazol-4-yl)-5,6,7,8-tetrahydro-1-naphthalenyl]-N,N-dipropylurea]",,,,,
3.98,10,2.11,0.536,733.7,"CCN(C(=O)Nc1cccc2c1CCCC2c1c[nH]cn1)C1CCCCC1 (stereo not drawn) [Example 113, N-cyclohexyl-N-ethyl-N′-[5-(1H-imidazol-4-yl)-5,6,7,8-tetrahydro-1-naphthalenyl]urea]",,,,,
9.12,10,5.62,1.05,1074.07,"O=C(Nc1cccc2c1CCCC2c1c[nH]cn1)N1CCCCC1 (stereo not drawn) [Example 114, N-[5-(1H-imidazol-4-yl)-5,6,7,8-tetrahydro-1-naphthalenyl]-1-piperidinecarboxamide]",,1.68,0.97,,
5.5,10,10,1.16,500,"CC1CC(C)CN(C(=O)Nc2cccc3c2CCCC3c2c[nH]cn2)C1 (stereo not drawn) [Example 115, N-[5-(1H-imidazol-4-yl)-5,6,7,8-tetrahydro-1-naphthalenyl]-3,5-dimethyl-1-piperidinecarboxamide]",,0.5,1.05,,
9.33,10,10,2.98,,"COCCN(CCOC)C(=O)Nc1cccc2c1CCCC2c1c[nH]cn1 (stereo not drawn) [Example 116, N′-[5-(1H-imidazol-4-yl)-5,6,7,8-tetrahydro-1-naphthalenyl]-N,N-bis(2-methoxyethyl)urea]",,,,,
6.17,1.36,0.692,1.28,,"CC(C)[C@H]1CC[C@H](C)C[C@@H]1OC(=O)Nc1cccc2c1CCCC2c1c[nH]cn1 (stereo partly drawn) [Example 123, (1S,2R,5S)-2-isopropyl-5-methylcyclohexyl 5-(1H-imidazol-4-yl)-5,6,7,8-tetrahydro-1-naphthalenylcarbamate]",,,,,

SMILES,EC50 (α1A (rabbit urethra)) [µM],"Ki [1, 6] [µM]","Ki [2, 7] [µM]",Ki [3] [µM],Mean MAP ED20 (anesthetized dogs [4]) [nmol/kg],melting point [°C],ED (5 mm Hg) (anesthetized dogs [5]) [µmol/kg],Mean Selectivity Ratio MAP ED20/IUP ED5 (anesthetized dogs [5]),Ki [1] [µM],Ki [2] [µM]
"O=S(=O)(Cc1ccccc1)Nc1cccc2c1CCCC2c1cnc[nH]1 (stereo not drawn) [Example 67, N-[5-(1H-imidazol-5-yl)-5,6,7,8-tetrahydro-1-naphthalenyl](phenyl)methanesulfonamide]",107,2.39,3.74,0.901,,,,,,
"O=S(=O)(C=Cc1ccccc1)Nc1cccc2c1CCCC2c1cnc[nH]1 (stereo not drawn) [Example 70, N-[5-(1H-imidazol-5-yl)-5,6,7,8-tetrahydro-1-naphthalenyl]-2-phenyl-1-ethenesulfonamide]",81.3,0.387,0.353,0.43,,,,,,
"CS(=O)(=O)Nc1cc(F)cc2c1OCCC2c1c[nH]cn1.O=C(O)/C=C\C(=O)O (stereo not drawn) [Example 90, N-[6-fluoro-4-(1H-imidazol-4-yl)-3,4-dihydro-2H-chromen-8-yl]methanesulfonamide Maleate]",0.49,10,10,0.237,,187 to 190,,,,
"C=C(c1cccc(NS(C)(=O)=O)c1)c1c[nH]cn1 [Example 92, N-{3-[1-(1H-imidazol-4-yl)vinyl]phenyl}methanesulfonamide]",3.24,10,1.98,0.689,652.06,,0.397,,,
"O=C(Nc1cccc2c1CCCC2c1c[nH]cn1)OCC(Cl)(Cl)Cl (stereo not drawn) [Example 121, 2,2,2-trichloroethyl 5-(1H-imidazol-4-yl)-5,6,7,8-tetrahydro-1-naphthalenylcarbamate]",3.72,,,0.229,,,,,1.85,0.963
